Laboratory results taken from patent publication US9963474B2, “Mitochondria-targeted dicarbonyl sequestering compounds” (MEDICAL RESEARCH COUNCIL, priority 2013, dated 2018).

Legend:
[1] = Partition coefficients between PBS and octan-1-ol; format: physicochemical; settings: octan-1-ol/PBS, means ± SE of 3 determinations, read-out: Partition coefficient (converted)
Protocol: RP-HPLC was performed using a Gilson 321 pump with a C18 column (Jupiter 300 Å, Phenomenex) with a Widepore C18 guard column (Phenomenex). Samples (1 ml) were injected through a 0.22 μm PVDF filter (Millex, Millipore). HPLC buffer A [0.1% TFA in water] and HPLC buffer B (90% acetonitrile and 0.1% TFA) were used and a gradient was run at 1 ml/min at room temperature as follows: 0-2 min—5% B; 2-17 min—5-100% B; 17-19 min—100% B; 19-22 min—100-5% B. Peaks were detected by absorbance at 220 nm (UV/Vis 151, Gilson) and by fluorescence (excitation and emission wavelengths of 344 and 433 nm; RF-10AXL, Shimadzu). Partition coefficients between PBS and octan-1-ol were determined as previously described.

[2] = Reaction rate with glyoxal (fluorometric kinetics); settings: 37° C., means±SE, n=3
Protocol: (A) The reactions between MitoG (100 μM) and 1,2-dicarbonyls (25 μM) at 37° C. were followed from the formation of the quinoxaline products at 345 nm. (B) Fluorimetric detection of the reaction between MitoG and methylglyoxal (40 μM each), and between MitoG and glyoxal (200 μM each) was observed by monitoring the quinoxaline products at excitation and emission wavelengths of 344 and 433 nm, respectively. The changes in fluorescence caused by MQE and QE formation was quantified from calibration curves constructed by plotting fluorescence (excitation and emission wavelengths of 344 and 433 nm, respectively) against known amounts of either quinoxaline and were linear up to at least 20 μM.
TPP-conjugated compounds were made up as 10 mM stock solutions in DMSO, flushed with argon and stored as aliquots at −20° C. […] The molar extinction coefficients were calculated from the absorbance at maximal absorption (λmax) for the compounds for solutions of known concentration. Reaction rates between MitoG and 1,2-dicarbonyls were determined from the initial linear slope over the first 30 s at the λmax for the formation of the relevant quinoxaline. Fluorescence spectra were obtained in 2.5 ml KCl buffer using a Shimadzu RF-301PC fluorimeter with slit widths of 3 nm. […]

[3] = tested on: horse-radish peroxidase (HRP); assay: Stability under oxidative conditions (HRP and hydrogen peroxide); format: physicochemical
Protocol: MitoG 100 μM was mixed with 0.07 U horse-radish peroxidase (HRP) in a 1 ml curvette containing 100 mM potassium phosphate buffer (pH 6.0) and 0.5% (w/v) hydrogen peroxide at room temperature. A reference curvette and a blank were similarly set up with DMSO in place of MitoG. Scanning UV/Vis spectra were then taken at 1 min, 5 min and 10 min after mixing using a spectrophotometer (Shimadzu UV-2501PC). Spectra of MitoG-containing mixtures were compared against the spectrum of the blank. To determine if any reaction observed could be prevented by the HRP inhibitor, NaN3 [58, 59] separate incubations were set up as above but containing 8 mg/ml NaN3 as well.
Oxidative degradation of o-phenylenediamine is known to result in the production of methylglyoxal and glyoxal. This oxidative degradation can lead to an overestimation of dicarbonyl levels in samples if o-phenylenediamine is used to try to quantify methylglyoxal and glyoxal levels in biological samples. To determine if MitoG could undergo similar oxidative degradation to methylglyoxal and glyoxal, MitoG was incubated with HRP and hydrogen peroxide in vitro. Scanning UV/Vis spectra of the reaction mixture were taken before and after the addition of HRP. HRP was used as a representative peroxidase that could catalyse an oxidative degradation in a cellular environment. […] These changes are prevented by the HRP inhibitor, NaN3.

C2C12 cells = assay: Protection against dicarbonyl-induced cell death, C2C12, MTS assay; format: cell-based, mouse; settings: pre-treated 1 h, overnight
Protocol: Isolated RLM respiring on glutamate/malate were incubated with MitoG, methoxyphenylenediamine (MP) or butylTPP for 2 min, followed by 0.5 mM methylglyoxal or 5 mM glyoxal for 5 min. ADP was then added and the rate of oxygen consumption monitored at 37° C. (see FIGS. 12A & 12B). C2C12 cells were pre-treated with MitoG, methoxyphenylenediamine (MP) or butylTPP for 1 h before exposure to 1 mM methylglyoxal or 5 mM glyoxal (see FIGS. 12C & 12D). Following an overnight incubation, cell survival was determined using the MTS assay. Similar experiments were conducted in BAECs pre-treated with MitoG, MP or butylTPP. For all experiments, concentrations of methylglyoxal and glyoxal used were chosen based on results from studies conducted prior to the protection assays. In these prior studies, RLM or cells were exposed to a range of dicarbonyl concentrations, and the phosphorylating rates of respiration or cell survival were evaluated. The results of these earlier experiments are shown in insets, and dicarbonyl concentrations that had caused significant respiratory depression or cell death were chosen for use in the protection assays. Data for all groups were normalized against untreated controls. For RLM, the rate of respiration by untreated controls was taken to be 100%; for cells, cell survival of untreated controls was taken to be 100%. Results are expressed as mean±S.E. of three independent experiments. MitoG was protective against methylglyoxal-induced respiratory depression and both methylglyoxal- and glyoxal-induced cell death in C2C12 cells and BAECs. […] In FIG. 12 the symbols *, ** respectively indicate that P<0.05 or P<0.01 relative to dicarbonyl-only groups; and the symbols +, ++ respectively indicate that P<0.05 or P<0.01 relative to untreated controls.

logD [1]: 0.38 | degradation in the presence of HRP ([3]; 100 μM, 0.07 U HRP, 0.5% hydrogen peroxide, pH 6.0, room temperature): degrades in the presence of HRP
Compound: Nc1ccc(OCCCCCC[P+](c2ccccc2)(c2ccccc2)c2ccccc2)cc1N [MitoG, (6-(3,4-Diaminophenoxy)hexyl)triphenylphosphonium chloride]
rate constant for reaction with glyoxal [2]: 0.6 ± 0.3 M⁻¹ s⁻¹ | oxidative degradation to methylglyoxal and glyoxal ([3]; HRP and hydrogen peroxide, product absorbs at 430 nm): does not undergo oxidative degradation to form methylglyoxal and glyoxal | protection against methylglyoxal-induced cell death (C2C12 cells; C2C12, 1 mM methylglyoxal): protective | protection against glyoxal-induced cell death (C2C12 cells; C2C12, 5 mM glyoxal): protective
